Experimental data published in PubChem BioAssay AID256 (DTP/NCI, 2004).
Inconclusive results and toxic doses are left out. The calls were made as follows: active = survival T/C of 150% or more; inactive = T/C below 125% in these data.

Test system: CD2F1 mice, L1210 leukemia ip, survival T/C
Test: NCI In Vivo Anticancer Drug Screen. Data for tumor model L1210 Leukemia (intraperitoneal) in CD2F1 (CDF1) mice
Settings: higher = longer survival
Procedure, shortened: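 Read-out first: treated-group measurement over vehicle-control measurement, expressed as a ratio. Animals bore a transplanted tumor line and were dosed with compound or vehicle.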

[1] = endpoint: mean survival time, dose: 100.0 mg/kg/injection, schedule: Q01DX001 (ip), vehicle: saline with Tween-80
[2] = endpoint: mean survival time, dose: 200.0 mg/kg/injection, schedule: Q01DX001 (ip), vehicle: saline with Tween-80
[3] = endpoint: mean survival time, dose: 100.0 mg/kg/injection, schedule: Q01DX009 (ip), vehicle: saline with Tween-80
[4] = endpoint: mean survival time, dose: 100.0 mg/kg/injection, schedule: Q04DX003 (ip), vehicle: saline with Tween-80
[5] = endpoint: mean survival time, dose: 200.0 mg/kg/injection, schedule: Q01DX009 (ip), vehicle: saline with Tween-80
[6] = endpoint: mean survival time, dose: 200.0 mg/kg/injection, schedule: Q04DX003 (ip), vehicle: saline with Tween-80
[7] = endpoint: mean survival time, dose: 400.0 mg/kg/injection, schedule: Q01DX009 (ip), vehicle: saline with Tween-80
[8] = endpoint: mean survival time, dose: 400.0 mg/kg/injection, schedule: Q04DX003 (ip), vehicle: saline with Tween-80
[9] = endpoint: mean survival time, dose: 50.0 mg/kg/injection, schedule: Q04DX003 (ip), vehicle: saline
[10] = endpoint: mean survival time, dose: 25.0 mg/kg/injection, schedule: Q01DX009 (ip), vehicle: saline
[11] = endpoint: mean survival time, dose: 100.0 mg/kg/injection, schedule: Q04DX003 (ip), vehicle: saline
[12] = endpoint: mean survival time, dose: 200.0 mg/kg/injection, schedule: Q04DX003 (ip), vehicle: saline
[13] = endpoint: mean survival time, dose: 400.0 mg/kg/injection, schedule: Q04DX003 (ip), vehicle: saline

Measured: T/C

S=P12N3CCN1CCN2CC3
inactive: endpoint: mean survival time, dose: 7.7 mg/kg/injection, schedule: Q01DX001 (ip), vehicle: water 101 % of control | endpoint: mean survival time, dose: 10.9 mg/kg/injection, schedule: Q01DX001 (ip), vehicle: water 95 % of control | endpoint: mean survival time, dose: 15.7 mg/kg/injection, schedule: Q01DX001 (ip), vehicle: water 100 % of control | endpoint: mean survival time, dose: 22.4 mg/kg/injection, schedule: Q01DX001 (ip), vehicle: water 97 % of control | endpoint: mean survival time, dose: 32.0 mg/kg/injection, schedule: Q01DX001 (ip), vehicle: water 100 % of control | endpoint: mean survival time, dose: 64.0 mg/kg/injection, schedule: Q01DX001 (ip), vehicle: saline 95 % of control | endpoint: mean survival time, dose: 128.0 mg/kg/injection, schedule: Q01DX001 (ip), vehicle: saline 98 % of control

CC(=O)C1CCC2CC3CCCCC3N(C(C)=O)C2C1 (centres undefined)
inactive: endpoint: mean survival time, dose: 50.0 mg/kg/injection, schedule: Q01DX001 (ip), vehicle: saline with Tween-80 107 % of control | [1] 105 % of control | [2] 100 % of control

Cc1c2c(cc3c1[nH]c1ccccc13)C(c1ccc(Cl)cc1)=NCC2
inactive: [3] 101 % of control | [4] 101 % of control | [5] 98 % of control | [6] 89 % of control | [7] 106 % of control | [8] 88 % of control

NCCS/C=C/C(=O)Oc1ccc(Br)cc1
inactive: [4] 103 % of control | [6] 96 % of control

CS(=O)(=O)C(=Cc1ccccc1Cl)S(C)(=O)=O
inactive: [4] 103 % of control | [6] 95 % of control | [8] 101 % of control

O=C1CSC(=S)N1c1cccc(C(F)(F)F)c1
inactive: [3] 97 % of control | [5] 112 % of control | [7] 101 % of control

C1=Nc2c(ccc3ccccc23)CS1
inactive: endpoint: mean survival time, dose: 25.0 mg/kg/injection, schedule: Q04DX002 (ip), vehicle: other 91 % of control | endpoint: mean survival time, dose: 50.0 mg/kg/injection, schedule: Q04DX002 (ip), vehicle: other 95 % of control | endpoint: mean survival time, dose: 100.0 mg/kg/injection, schedule: Q04DX002 (ip), vehicle: other 100 % of control

O=[N+]([O-])c1ccc(F)c(Cl)c1
inactive: endpoint: mean survival time, dose: 25.0 mg/kg/injection, schedule: Q01DX009 (ip), vehicle: other 96 % of control | endpoint: mean survival time, dose: 50.0 mg/kg/injection, schedule: Q01DX009 (ip), vehicle: other 100 % of control | endpoint: mean survival time, dose: 100.0 mg/kg/injection, schedule: Q01DX009 (ip), vehicle: other 96 % of control

Nc1ccc(C(=O)CCCN2CCCCC2)cc1
inactive: endpoint: mean survival time, dose: 12.5 mg/kg/injection, schedule: Q04DX003 (ip), vehicle: saline 107 % of control | endpoint: mean survival time, dose: 25.0 mg/kg/injection, schedule: Q04DX003 (ip), vehicle: saline 95 % of control | [9] 107 % of control

COC(=O)c1ncn(C2OC(COC(=O)c3ccccc3)C(OC(=O)c3ccccc3)C2OC(=O)c2ccccc2)c1C(=O)OC (centres undefined)
inactive: endpoint: median survival time, dose: 8.75 mg/kg/injection, schedule: Q01DX005 (ip), vehicle: distilled water + Tween-80 93 % of control | endpoint: median survival time, dose: 12.5 mg/kg/injection, schedule: Q01DX005 (ip), vehicle: distilled water + Tween-80 97 % of control | endpoint: median survival time, dose: 25.0 mg/kg/injection, schedule: Q01DX005 (ip), vehicle: distilled water + Tween-80 90 % of control | endpoint: median survival time, dose: 35.0 mg/kg/injection, schedule: Q01DX005 (ip), vehicle: distilled water + Tween-80 103 % of control | endpoint: median survival time, dose: 50.0 mg/kg/injection, schedule: Q01DX005 (ip), vehicle: distilled water + Tween-80 88 % of control | endpoint: median survival time, dose: 100.0 mg/kg/injection, schedule: Q01DX005 (ip), vehicle: distilled water + Tween-80 92 % of control | endpoint: median survival time, dose: 140.0 mg/kg/injection, schedule: Q01DX005 (ip), vehicle: distilled water + Tween-80 89 % of control | endpoint: median survival time, dose: 200.0 mg/kg/injection, schedule: Q01DX005 (ip), vehicle: distilled water + Tween-80 97 % of control

COc1cc2ccc(/C=C\[N+](=O)[O-])cc2cc1OC
inactive: endpoint: mean survival time, dose: 12.5 mg/kg/injection, schedule: Q01DX009 (ip), vehicle: water 94 % of control | endpoint: mean survival time, dose: 25.0 mg/kg/injection, schedule: Q01DX009 (ip), vehicle: water 102 % of control | endpoint: mean survival time, dose: 50.0 mg/kg/injection, schedule: Q01DX009 (ip), vehicle: water 96 % of control

CC(C)c1cc2c(cc1O)C1(C)CCCC(C)(C(=O)O)C1CC2 (centres undefined)
inactive: [3] 98 % of control | [4] 95 % of control | [5] 102 % of control | [6] 96 % of control | [7] 101 % of control | [8] 94 % of control

O=c1[nH]c(SCc2ccccc2)nc(Cc2ccccc2)c1CCO
inactive: [4] 95 % of control | [6] 94 % of control | [8] 90 % of control

Cc1cc(C(O)(C(=O)O)c2ccccc2)c(C)c(C)c1C (centres undefined)
inactive: endpoint: mean survival time, dose: 75.0 mg/kg/injection, schedule: Q01DX001 (ip), vehicle: other 90 % of control | endpoint: mean survival time, dose: 150.0 mg/kg/injection, schedule: Q01DX001 (ip), vehicle: other 94 % of control | endpoint: mean survival time, dose: 300.0 mg/kg/injection, schedule: Q01DX001 (ip), vehicle: other 102 % of control

CC(C)(C)OC(=O)C(CCC(=O)O)NC(=O)OCc1ccccc1 (centres undefined)
inactive: [4] 99 % of control | [6] 97 % of control | [8] 100 % of control

ClCC(Cl)CN1CCCCC1 (centres undefined)
inactive: [10] 100 % of control | endpoint: mean survival time, dose: 50.0 mg/kg/injection, schedule: Q01DX009 (ip), vehicle: saline 103 % of control

O=C(O)C[As](=O)(O)O
inactive: endpoint: mean survival time, dose: 15.0 mg/kg/injection, schedule: Q01DX009 (ip), vehicle: saline 100 % of control | endpoint: mean survival time, dose: 30.0 mg/kg/injection, schedule: Q01DX009 (ip), vehicle: saline 108 % of control | endpoint: mean survival time, dose: 60.0 mg/kg/injection, schedule: Q01DX009 (ip), vehicle: saline 91 % of control

COC(=O)C1(C)CCCC2(C)C3CCC(C)(CCOC(C)=O)CC3C(OC(C)=O)CC12 (centres undefined)
inactive: [1] 90 % of control

O=[N+]([O-])O.[Sc]
inactive: endpoint: mean survival time, dose: 6.25 mg/kg/injection, schedule: Q01DX009 (ip), vehicle: saline 93 % of control | endpoint: mean survival time, dose: 12.5 mg/kg/injection, schedule: Q01DX009 (ip), vehicle: saline 90 % of control | [10] 88 % of control | endpoint: mean survival time, dose: 100.0 mg/kg/injection, schedule: Q01DX001 (ip), vehicle: saline 100 % of control | endpoint: mean survival time, dose: 400.0 mg/kg/injection, schedule: Q01DX001 (ip), vehicle: saline 93 % of control

COC(=O)C(NC(=O)CCNC(=O)OCc1ccccc1)C(C)C (centres undefined)
inactive: [3] 95 % of control | [5] 101 % of control

Cc1cc(=O)n(C)c2c(C)cccc12
inactive: [3] 98 % of control | [5] 92 % of control | [7] 95 % of control

COc1ccc2c3c1OC1C(=O)C4CC5(c6c(O)ccc(O)c64)C(C2)N(C)CCC315 (centres undefined)
inactive: [6] 86 % of control | [8] 86 % of control

Nc1ncc2ccccc2c1-c1ccc(NC(=O)CCCl)cc1
inactive: endpoint: mean survival time, dose: 25.0 mg/kg/injection, schedule: Q04DX003 (ip), vehicle: DMSO 98 % of control | endpoint: mean survival time, dose: 50.0 mg/kg/injection, schedule: Q04DX003 (ip), vehicle: DMSO 102 % of control | endpoint: mean survival time, dose: 100.0 mg/kg/injection, schedule: Q04DX003 (ip), vehicle: DMSO 95 % of control | endpoint: mean survival time, dose: 200.0 mg/kg/injection, schedule: Q04DX003 (ip), vehicle: DMSO 102 % of control | endpoint: mean survival time, dose: 400.0 mg/kg/injection, schedule: Q04DX003 (ip), vehicle: DMSO 90 % of control

CCC(CC)c1ccccn1
inactive: endpoint: mean survival time, dose: 100.0 mg/kg/injection, schedule: Q01DX009 (ip), vehicle: saline 115 % of control | [11] 99 % of control | endpoint: mean survival time, dose: 200.0 mg/kg/injection, schedule: Q01DX009 (ip), vehicle: saline 120 % of control | [12] 99 % of control | endpoint: mean survival time, dose: 400.0 mg/kg/injection, schedule: Q01DX009 (ip), vehicle: saline 117 % of control | [13] 110 % of control

Nc1nc(N)c(-c2ccc(Cl)c(Cl)c2)c(CBr)n1
inactive: endpoint: mean survival time, dose: 12.5 mg/kg/injection, schedule: Q01DX009 (ip), vehicle: saline with Tween-80 102 % of control | endpoint: mean survival time, dose: 25.0 mg/kg/injection, schedule: Q01DX009 (ip), vehicle: saline with Tween-80 105 % of control

CC(=O)CC(=O)N1CCN(C(=O)CC(C)=O)CC1
inactive: [11] 98 % of control | [12] 96 % of control | [13] 98 % of control

O=c1[nH]c(/C=C/c2ccccc2)c([N+](=O)[O-])c(=O)[nH]1
inactive: [1] 95 % of control | [2] 90 % of control | endpoint: mean survival time, dose: 400.0 mg/kg/injection, schedule: Q01DX001 (ip), vehicle: saline with Tween-80 90 % of control

CC(CN)OS(=O)(=O)O (centres undefined)
inactive: endpoint: mean survival time, dose: 50.0 mg/kg/injection, schedule: Q01DX009 (ip), vehicle: saline with Tween-80 100 % of control | [9] 103 % of control | [3] 105 % of control | [11] 106 % of control | [5] 101 % of control | [12] 97 % of control | [7] 101 % of control | [13] 105 % of control
